What was measured:
[1] = test system: Mast/stem cell growth factor receptor Kit (Homo sapiens), P10721 [D816V]; conditions: Compound concentration 1000.0 nM
[2] = biological target: Serine/threonine-protein kinase Sgk1 (Homo sapiens) (UniProt O00141); conditions: Compound concentration 1000.0 nM
[3] = biological target: T1, Muscarinic acetylcholine receptor M2 (Homo sapiens) (UniProt P08172); conditions: Compound concentration 10.0 uM
T1 sequence (whole entry): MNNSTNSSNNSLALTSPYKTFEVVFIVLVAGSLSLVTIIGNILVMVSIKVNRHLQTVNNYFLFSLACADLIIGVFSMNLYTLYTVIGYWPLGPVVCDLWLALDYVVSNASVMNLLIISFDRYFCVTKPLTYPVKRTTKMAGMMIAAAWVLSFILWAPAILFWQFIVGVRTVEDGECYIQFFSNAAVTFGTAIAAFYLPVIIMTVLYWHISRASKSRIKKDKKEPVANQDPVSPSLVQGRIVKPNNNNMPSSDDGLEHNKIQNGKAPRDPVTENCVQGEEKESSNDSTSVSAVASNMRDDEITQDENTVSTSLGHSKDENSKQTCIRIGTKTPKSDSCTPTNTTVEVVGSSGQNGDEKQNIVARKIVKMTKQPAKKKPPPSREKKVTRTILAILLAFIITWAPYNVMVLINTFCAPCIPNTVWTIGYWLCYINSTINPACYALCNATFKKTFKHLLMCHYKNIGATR

[4] = biological target: Serine/threonine-protein kinase ULK3 (Homo sapiens) (UniProt Q6PHR2); conditions: Compound concentration 1000.0 nM
[5] = biological target: Vascular endothelial growth factor receptor 1 (Homo sapiens) (UniProt P17948); conditions: Compound concentration 1000.0 nM
Vascular endothelial growth factor receptor 1 (Homo sapiens), sequence (P17948 whole entry): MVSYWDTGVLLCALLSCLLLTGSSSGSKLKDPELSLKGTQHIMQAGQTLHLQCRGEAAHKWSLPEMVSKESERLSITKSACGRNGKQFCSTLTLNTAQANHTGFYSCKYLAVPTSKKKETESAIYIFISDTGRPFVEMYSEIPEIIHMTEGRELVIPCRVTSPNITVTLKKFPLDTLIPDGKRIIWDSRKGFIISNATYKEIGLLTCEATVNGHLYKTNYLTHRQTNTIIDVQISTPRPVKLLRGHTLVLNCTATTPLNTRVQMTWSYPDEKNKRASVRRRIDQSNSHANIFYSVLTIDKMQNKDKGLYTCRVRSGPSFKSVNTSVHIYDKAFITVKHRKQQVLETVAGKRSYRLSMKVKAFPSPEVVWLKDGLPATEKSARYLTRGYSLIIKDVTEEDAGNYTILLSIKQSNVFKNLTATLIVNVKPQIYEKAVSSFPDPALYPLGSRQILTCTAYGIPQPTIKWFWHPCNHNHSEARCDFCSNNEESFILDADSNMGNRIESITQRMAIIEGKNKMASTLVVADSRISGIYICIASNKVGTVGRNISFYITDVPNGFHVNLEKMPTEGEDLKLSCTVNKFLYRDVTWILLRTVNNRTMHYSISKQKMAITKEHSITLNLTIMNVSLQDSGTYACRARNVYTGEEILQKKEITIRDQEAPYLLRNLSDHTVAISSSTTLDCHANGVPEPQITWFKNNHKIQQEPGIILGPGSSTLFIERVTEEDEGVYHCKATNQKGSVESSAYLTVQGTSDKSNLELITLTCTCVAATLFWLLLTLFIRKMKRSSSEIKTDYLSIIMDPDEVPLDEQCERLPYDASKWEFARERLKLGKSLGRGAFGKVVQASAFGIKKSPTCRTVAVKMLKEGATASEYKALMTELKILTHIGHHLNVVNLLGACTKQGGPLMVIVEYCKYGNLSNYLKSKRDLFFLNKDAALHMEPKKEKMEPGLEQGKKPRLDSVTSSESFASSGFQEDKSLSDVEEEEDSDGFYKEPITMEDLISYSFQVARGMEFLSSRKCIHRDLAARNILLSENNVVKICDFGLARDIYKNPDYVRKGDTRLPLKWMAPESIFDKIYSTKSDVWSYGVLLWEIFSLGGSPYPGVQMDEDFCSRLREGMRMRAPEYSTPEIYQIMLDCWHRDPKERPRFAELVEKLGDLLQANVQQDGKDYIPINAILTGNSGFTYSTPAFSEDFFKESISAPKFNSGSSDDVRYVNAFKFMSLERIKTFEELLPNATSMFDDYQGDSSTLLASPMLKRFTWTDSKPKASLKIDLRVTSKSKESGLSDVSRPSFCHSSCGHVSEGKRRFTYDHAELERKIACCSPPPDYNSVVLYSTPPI

[6] = biological target: Ephrin type-B receptor 1 (Homo sapiens) (UniProt P54762); conditions: Compound concentration 1000.0 nM
[7] = biological target: Ribosomal protein S6 kinase alpha-3 (Homo sapiens) (UniProt P51812); conditions: Compound concentration 1000.0 nM
[8] = biological target: Proto-oncogene tyrosine-protein kinase receptor Ret (Homo sapiens) (UniProt P07949); conditions: Compound concentration 1000.0 nM
Proto-oncogene tyrosine-protein kinase receptor Ret (Homo sapiens), sequence (P07949 whole entry): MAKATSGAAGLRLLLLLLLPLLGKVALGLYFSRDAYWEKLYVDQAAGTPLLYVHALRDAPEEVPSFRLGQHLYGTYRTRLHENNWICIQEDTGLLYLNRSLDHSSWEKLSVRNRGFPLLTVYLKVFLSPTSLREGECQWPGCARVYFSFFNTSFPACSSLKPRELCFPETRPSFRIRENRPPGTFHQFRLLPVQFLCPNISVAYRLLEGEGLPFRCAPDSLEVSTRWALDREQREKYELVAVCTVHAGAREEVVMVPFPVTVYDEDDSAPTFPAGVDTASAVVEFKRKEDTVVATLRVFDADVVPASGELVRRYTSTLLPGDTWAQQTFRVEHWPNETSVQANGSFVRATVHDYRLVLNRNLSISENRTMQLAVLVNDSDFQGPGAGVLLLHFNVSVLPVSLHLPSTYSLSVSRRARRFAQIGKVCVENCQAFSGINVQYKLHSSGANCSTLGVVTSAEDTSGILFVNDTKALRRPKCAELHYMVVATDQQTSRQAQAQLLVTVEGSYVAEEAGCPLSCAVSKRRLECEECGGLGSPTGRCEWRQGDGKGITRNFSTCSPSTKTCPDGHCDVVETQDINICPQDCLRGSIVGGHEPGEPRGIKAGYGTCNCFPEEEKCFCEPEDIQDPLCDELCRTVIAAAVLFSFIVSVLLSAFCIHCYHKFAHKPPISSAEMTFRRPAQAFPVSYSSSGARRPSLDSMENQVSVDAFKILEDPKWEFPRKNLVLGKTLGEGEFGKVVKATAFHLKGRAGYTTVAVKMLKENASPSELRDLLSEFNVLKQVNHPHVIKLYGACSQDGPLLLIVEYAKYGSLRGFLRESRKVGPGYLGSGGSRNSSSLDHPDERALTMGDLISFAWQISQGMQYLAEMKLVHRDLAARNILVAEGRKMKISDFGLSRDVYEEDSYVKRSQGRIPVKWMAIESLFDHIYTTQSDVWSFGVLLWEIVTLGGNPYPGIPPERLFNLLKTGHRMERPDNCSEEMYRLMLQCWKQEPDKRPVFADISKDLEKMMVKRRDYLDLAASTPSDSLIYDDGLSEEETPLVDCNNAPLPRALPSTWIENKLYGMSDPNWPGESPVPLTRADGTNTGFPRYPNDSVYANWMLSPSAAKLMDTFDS

[9] = biological target: Tyrosine-protein kinase ABL1 (Homo sapiens) (UniProt P00519); conditions: Compound concentration 1000.0 nM
[10] = biological target: SRSF protein kinase 3 (Homo sapiens) (UniProt Q9UPE1); conditions: Compound concentration 1000.0 nM
SRSF protein kinase 3 (Homo sapiens), sequence (Q9UPE1 whole entry): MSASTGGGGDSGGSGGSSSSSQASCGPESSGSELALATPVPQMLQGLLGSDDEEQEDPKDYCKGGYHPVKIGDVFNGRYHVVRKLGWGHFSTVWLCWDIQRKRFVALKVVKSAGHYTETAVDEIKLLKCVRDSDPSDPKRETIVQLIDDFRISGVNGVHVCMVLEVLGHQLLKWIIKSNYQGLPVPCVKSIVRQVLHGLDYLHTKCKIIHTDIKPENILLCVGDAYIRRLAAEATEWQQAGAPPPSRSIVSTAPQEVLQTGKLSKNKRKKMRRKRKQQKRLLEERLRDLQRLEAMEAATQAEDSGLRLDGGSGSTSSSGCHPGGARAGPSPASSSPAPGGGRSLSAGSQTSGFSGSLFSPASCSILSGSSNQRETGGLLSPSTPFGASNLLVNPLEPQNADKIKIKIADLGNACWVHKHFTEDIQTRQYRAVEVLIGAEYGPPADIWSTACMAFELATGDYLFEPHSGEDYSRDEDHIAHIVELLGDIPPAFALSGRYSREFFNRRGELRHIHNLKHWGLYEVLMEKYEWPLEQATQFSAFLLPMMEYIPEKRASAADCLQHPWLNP

[11] = biological target: Mitogen-activated protein kinase kinase kinase 2 (Homo sapiens) (UniProt Q9Y2U5); conditions: Compound concentration 1000.0 nM
[12] = biological target: G protein-coupled receptor kinase 3 (Homo sapiens) (UniProt P35626); conditions: Compound concentration 1000.0 nM
[13] = biological target: Mitogen-activated protein kinase 6 (Homo sapiens) (UniProt Q16659); conditions: Compound concentration 1000.0 nM
[14] = biological target: Interferon-induced, double-stranded RNA-activated protein kinase (Homo sapiens) (UniProt P19525); conditions: Compound concentration 1000.0 nM
[15] = biological target: cGMP-dependent protein kinase 1 (Homo sapiens) (UniProt Q13976); conditions: Compound concentration 1000.0 nM
[16] = biological target: LIM domain kinase 1 (Homo sapiens) (UniProt P53667); conditions: Compound concentration 1000.0 nM
[17] = biological target: 5-hydroxytryptamine receptor 2A (Homo sapiens) (UniProt P28223); conditions: Compound concentration 10.0 uM
5-hydroxytryptamine receptor 2A (Homo sapiens), sequence (P28223 whole entry): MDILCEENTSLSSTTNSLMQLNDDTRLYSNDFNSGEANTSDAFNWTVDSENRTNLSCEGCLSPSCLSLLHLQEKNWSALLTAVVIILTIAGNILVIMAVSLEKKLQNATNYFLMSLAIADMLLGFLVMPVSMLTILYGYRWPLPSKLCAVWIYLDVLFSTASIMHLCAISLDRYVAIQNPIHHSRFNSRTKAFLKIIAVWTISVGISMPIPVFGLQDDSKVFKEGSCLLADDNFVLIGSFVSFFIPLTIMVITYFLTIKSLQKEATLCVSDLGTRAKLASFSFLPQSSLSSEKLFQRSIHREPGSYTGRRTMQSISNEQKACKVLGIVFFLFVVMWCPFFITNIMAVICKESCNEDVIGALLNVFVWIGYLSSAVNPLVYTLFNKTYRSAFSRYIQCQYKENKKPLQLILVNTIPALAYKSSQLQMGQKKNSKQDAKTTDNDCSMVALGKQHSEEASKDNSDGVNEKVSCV

[18] = biological target: Dual specificity testis-specific protein kinase 1 (Homo sapiens) (UniProt Q15569); conditions: Compound concentration 1000.0 nM
Dual specificity testis-specific protein kinase 1 (Homo sapiens), sequence (Q15569 whole entry, looked up): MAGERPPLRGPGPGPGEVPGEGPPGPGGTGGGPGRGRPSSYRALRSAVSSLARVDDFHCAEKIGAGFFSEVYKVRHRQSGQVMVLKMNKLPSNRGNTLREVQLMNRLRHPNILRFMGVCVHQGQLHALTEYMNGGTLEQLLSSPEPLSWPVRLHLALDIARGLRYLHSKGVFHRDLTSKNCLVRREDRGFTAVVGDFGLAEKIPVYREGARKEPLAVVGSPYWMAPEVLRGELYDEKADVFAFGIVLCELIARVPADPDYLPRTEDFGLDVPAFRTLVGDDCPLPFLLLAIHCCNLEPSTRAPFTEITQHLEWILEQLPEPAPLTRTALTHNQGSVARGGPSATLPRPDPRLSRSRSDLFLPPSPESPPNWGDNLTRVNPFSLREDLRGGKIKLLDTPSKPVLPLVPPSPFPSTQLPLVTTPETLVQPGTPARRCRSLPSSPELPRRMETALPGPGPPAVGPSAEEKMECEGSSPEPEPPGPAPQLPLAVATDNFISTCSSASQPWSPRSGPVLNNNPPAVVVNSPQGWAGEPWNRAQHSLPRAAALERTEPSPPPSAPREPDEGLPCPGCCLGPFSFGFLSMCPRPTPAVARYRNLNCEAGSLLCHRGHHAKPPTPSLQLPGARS

[19] = biological target: Mitogen-activated protein kinase 12 (Homo sapiens) (UniProt P53778); conditions: Compound concentration 1000.0 nM
[20] = biological target: Tyrosine-protein kinase Fgr (Homo sapiens) (UniProt P09769); conditions: Compound concentration 1000.0 nM
[21] = biological target: Mitogen-activated protein kinase kinase kinase 7 (Homo sapiens) (UniProt O43318); conditions: Compound concentration 1000.0 nM
[22] = biological target: Serine/threonine-protein kinase pim-3 (Homo sapiens) (UniProt Q86V86); conditions: Compound concentration 1000.0 nM
[23] = biological target: Bone morphogenetic protein receptor type-2 (Homo sapiens) (UniProt Q13873); conditions: Compound concentration 1000.0 nM
[24] = biological target: Ephrin type-B receptor 3 (Homo sapiens) (UniProt P54753); conditions: Compound concentration 1000.0 nM
[25] = biological target: Leukocyte tyrosine kinase receptor (Homo sapiens) (UniProt P29376); conditions: Compound concentration 1000.0 nM
[26] = biological target: Cyclin-dependent kinase-like 3 (Homo sapiens) (UniProt Q8IVW4); conditions: Compound concentration 1000.0 nM
Cyclin-dependent kinase-like 3 (Homo sapiens), sequence (Q8IVW4 whole entry, looked up): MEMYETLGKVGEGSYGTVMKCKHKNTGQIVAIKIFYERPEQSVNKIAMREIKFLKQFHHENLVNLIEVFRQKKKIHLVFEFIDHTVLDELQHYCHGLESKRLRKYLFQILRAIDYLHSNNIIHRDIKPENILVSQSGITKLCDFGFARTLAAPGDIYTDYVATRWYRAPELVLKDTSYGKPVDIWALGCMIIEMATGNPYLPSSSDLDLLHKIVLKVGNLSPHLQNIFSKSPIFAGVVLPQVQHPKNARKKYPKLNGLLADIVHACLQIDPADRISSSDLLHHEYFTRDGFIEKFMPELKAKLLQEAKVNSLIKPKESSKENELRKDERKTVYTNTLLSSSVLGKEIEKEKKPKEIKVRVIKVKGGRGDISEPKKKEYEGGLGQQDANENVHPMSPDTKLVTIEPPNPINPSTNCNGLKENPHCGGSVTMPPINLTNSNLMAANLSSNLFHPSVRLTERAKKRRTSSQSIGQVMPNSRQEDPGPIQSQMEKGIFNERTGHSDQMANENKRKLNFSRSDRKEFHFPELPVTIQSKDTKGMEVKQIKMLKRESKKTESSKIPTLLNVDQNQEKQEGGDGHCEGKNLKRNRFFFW

[27] = biological target: Cyclin-dependent kinase 4 (Homo sapiens) (UniProt P11802); conditions: Compound concentration 1000.0 nM
[28] = test system: Mast/stem cell growth factor receptor Kit (Homo sapiens), P10721 [V559D,V654A]; conditions: Compound concentration 1000.0 nM
[29] = biological target: Casein kinase I isoform gamma-2 (Homo sapiens) (UniProt P78368); conditions: Compound concentration 1000.0 nM
[30] = biological target: Calcium-dependent protein kinase 1 (Plasmodium falciparum) (UniProt P62344); conditions: Compound concentration 1000.0 nM
[31] = biological target: Serine/threonine-protein kinase MRCK alpha (Homo sapiens) (UniProt Q5VT25); conditions: Compound concentration 1000.0 nM
[32] = test system: Phosphatidylinositol 4,5-bisphosphate 3-kinase catalytic subunit alpha isoform (Homo sapiens), P42336 [C420R]; conditions: Compound concentration 1000.0 nM
[33] = biological target: Serine/threonine-protein kinase 38-like (Homo sapiens) (UniProt Q9Y2H1); conditions: Compound concentration 1000.0 nM
[34] = biological target: Serine/threonine-protein kinase 16 (Homo sapiens) (UniProt O75716); conditions: Compound concentration 1000.0 nM
Serine/threonine-protein kinase 16 (Homo sapiens), sequence (O75716 whole entry): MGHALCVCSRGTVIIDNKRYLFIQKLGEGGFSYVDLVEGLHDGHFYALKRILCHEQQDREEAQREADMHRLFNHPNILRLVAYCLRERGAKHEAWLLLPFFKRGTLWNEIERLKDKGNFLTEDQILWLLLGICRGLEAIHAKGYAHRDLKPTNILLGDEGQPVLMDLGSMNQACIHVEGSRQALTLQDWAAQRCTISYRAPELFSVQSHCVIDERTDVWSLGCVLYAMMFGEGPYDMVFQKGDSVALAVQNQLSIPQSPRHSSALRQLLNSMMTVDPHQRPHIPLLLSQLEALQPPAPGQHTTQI

[35] = biological target: Serine/threonine-protein kinase 32A (Homo sapiens) (UniProt Q8WU08); conditions: Compound concentration 1000.0 nM
[36] = biological target: Macrophage colony-stimulating factor 1 receptor (Homo sapiens) (UniProt P07333); conditions: Compound concentration 1000.0 nM
[37] = biological target: Serine/threonine-protein kinase PLK4 (Homo sapiens) (UniProt O00444); conditions: Compound concentration 1000.0 nM
[38] = biological target: STE20/SPS1-related proline-alanine-rich protein kinase (Homo sapiens) (UniProt Q9UEW8); conditions: Compound concentration 1000.0 nM
[39] = biological target: Activin receptor type-1B (Homo sapiens) (UniProt P36896); conditions: Compound concentration 1000.0 nM

FC(F)(F)c1ccc2c(c1)nc(-c1cccnc1)n2C1CC1 [MSD-CYP11B2-Negative-control]
inactive: residual activity [1] 100% | residual activity [2] 100% | inhibition [3] 2.99% | residual activity [4] 100% | residual activity [5] 100% | residual activity [6] 100% | residual activity [7] 89% | residual activity [8] 99% | residual activity [9] 91% | residual activity [10] 100% | residual activity [11] 100% | residual activity [12] 76% | residual activity [13] 100% | residual activity [14] 89% | residual activity [15] 87% | residual activity [16] 100% | inhibition [17] 4.15% | residual activity [18] 100% | residual activity [19] 100% | residual activity [20] 100% | residual activity [21] 100% | residual activity [22] 100% | residual activity [23] 100% | residual activity [24] 100% | residual activity [25] 100% | residual activity [26] 96% | residual activity [27] 100% | residual activity [28] 100% | residual activity [29] 100% | residual activity [30] 100% | residual activity [31] 100% | residual activity [32] 92% | residual activity [33] 100% | residual activity [34] 100% | residual activity [35] 89% | residual activity [36] 100% | residual activity [37] 78% | residual activity [38] 100% | residual activity [39] 98%

CC(C)(O)c1cncc(-c2nc3ccc(F)cc3n2C2CC2)c1 [MSD-CYP11B2]
inactive: residual activity [1] 100% | residual activity [2] 100% | inhibition [3] -0.1% | residual activity [4] 95% | residual activity [5] 100% | residual activity [6] 100% | residual activity [7] 100% | residual activity [8] 100% | residual activity [9] 89% | residual activity [10] 100% | residual activity [11] 100% | residual activity [12] 79% | residual activity [13] 100% | residual activity [14] 91% | residual activity [15] 78% | residual activity [16] 100% | inhibition [17] -0.31% | residual activity [18] 100% | residual activity [19] 88% | residual activity [20] 100% | residual activity [21] 100% | residual activity [22] 98% | residual activity [23] 100% | residual activity [24] 100% | residual activity [25] 100% | residual activity [26] 84% | residual activity [27] 100% | residual activity [28] 87% | residual activity [29] 100% | residual activity [30] 100% | residual activity [31] 100% | residual activity [32] 96% | residual activity [33] 100% | residual activity [34] 100% | residual activity [35] 100% | residual activity [36] 99% | residual activity [37] 79% | residual activity [38] 100% | residual activity [39] 99%
